“Also recorded” adds a separate entry of the source.
Legend:
DUSP6 / cold microbiota = test: 16S rRNA microbiota analysis of BCI-CR versus Vehicle-CR mice (cold-room temperature transition); type: in vivo; conditions: during the cold-RT transition, BCI-CR vs Vehicle-CR, 16S rRNA sequencing
Description: FIG. 1B illustrates the cold induced gut bacteria that is regulated by DUSP6 inhibition by injecting DUSP6 inhibitor, (E/Z)-BCI hydrochloride, into the mice underwent cold-room temperature (CR) transition.
To search the potential Nε-Methyl-L-lysine producers in cold microbiota, we performed the microbiota analysis on 16S rRNA sequencing data of BCI-CR and Vehicle-CR microbiota.

[1] = test system: CDAHFD-induced NASH and liver fibrosis; test: NASH and liver fibrosis test (CDAHFD-fed mice); type: in vivo, male C57BL/6J mice
Method: (§1) Tissues were fixed in 4% neutral-buffered formalin (Sigma), paraffin-embedded, sectioned, and stained with hematoxylin and eosin (H&E) or subjected to immunohistochemistry analysis. For adipose tissue, the 5 μm FFPE sections of pWAT and iWAT were deparaffinated and stained with H&E. The mean adipocyte area and adipocyte size distribution were determined by using Adiposoft software. For quantifying lipid droplets in liver tissues, the 5 μm FFPE liver sections were deparaffinated and stained with H&E. The mean lipid droplets area was determined by using Image J software.
Groups of 6-week-old male C57BL/6J mice were fed in choline-deficient, L-amino acid-defined, high-fat diet (CDAHFD; #A06071302) purchased from Research Diets (New Brunswick, NJ, USA) or chow diet for 4 weeks. After two weeks of CDAHFD treatment, mice were orally administrated L-lysine (150 mM), Nε-Methyl-L-lysine (150 mM) (100 ul/mouse/Day) or vehicle (water; 100 ul/mouse/Day) for 14 days with continuing CDAHFD treatment. Bodyweight was measured weekly. After sacrifice, the serum of mice was collected and stored at −80° ° C. The serum levels of aspartate aminotransferase (AST) and alanine aminotransferase (ALT) were measured with biochemistry slides for a chemistry analyzer (FUJI DRI-CHEM 4000i, Fujifilm Corporation, Japan). For hepatic fibrosis staining, the 5 μm FFPE liver sections were deparaffinated and stained with a Trichrome staining kit according to the manufacturer's instructions.
8-weeks old male C57BL/6 mice are fed with a choline-deficient, L-amino acid-define, high-fat diet (CDAHFD) (Research Diet, Inc. […]) for 4 weeks to induce NASH and liver fibrosis. During the third and fourth week of CDAHFD treatment, it is orally administered Nε-Methyl-L-lysine (100 μg Nε-Methyl-L-lysine/g body weight/per day) into mice for fourteen days. […] Data are presented as mean±SEM. Kruskal-Wallis test is used in FIG. 4 (a and b) Mann-Whitney t-tests are used in FIG. 4 (c and d) to indicate significant differences between groups. *P<0.05. *P<0.005. *P<0.0005. *P<0.00005.

[2] = test system: perigonadal white adipose tissue (pWAT) and inguinal white adipose tissue (iWAT); test: Adipose tissues reducing experiment: 14-day oral administration to chow diet-fed mice, body weight and pWAT/iWAT mass; type: in vivo, male C57BL/6J mice; conditions: chow diet-fed male mice, fourteen days
Method: To test the browning-activating and WAT-reducing abilities of Nε-Methyl-L-lysine, 8-week-old male C57BL/6J mice were orally administrated of L-lysine (150 mM), Nε-Methyl-L-lysine (150 mM) (100 ul/mouse/Day) or vehicle (water; 100 ul/mouse/Day) for 14 days.
(§2) 14 days after treatment, the L-lysine (150 mM), Nε-Methyl-L-lysine (150 mM) (100 ul/mouse/Day) or vehicle (water; 100 ul/mouse/Day) treated mice were sacrificed and the perigonadal white adipose tissue (pWAT) and inguinal white adipose tissue (iWAT) were collected and weighted for measuring the reducing effects of L-lysine, Nε-Methyl-L-lysine and vehicle. To test the browning-activating abilities of L-lysine, Nε-Methyl-L-lysine and vehicle control in pWAT and iWAT of treated mice, total RNA of WAT was extracted by using RNeasy Lipid Tissue kits. The concentration and quality of RNA were measured by NanoDrop spectrophotometer. For qRT-PCR analysis of browning marker gene Ucp1 and beta-oxidation gene Cpt1b, complementary DNA was obtained by using M-MLV Reverse Transcriptase with oligo-dT primers. qRT-PCR was performed with SYBR-green master on a MyGo Pro PCR system.
FIG. 6 illustrates a method of using Nε-Methyl-L-lysine to reduce the total mass of subcutaneous and perigonadal white adipose tissues without reducing total body weight. It is orally administered Nε-Methyl-L-lysine (100 μg Nε-Methyl-L-lysine/g body weight/per day, body weights before treatment, body weights 7 days after treatment, body weights 14 days after treatment) into eight weeks old male C57/BL6 mice for fourteen days. […] Data are presented as mean±SEM and significance is calculated by one-way ANOVA followed by Tukey's multiple comparison test. *P<0.05. **P<0.01.

gut microbiota = test: Gut microbiota control experiment (14-day oral administration); type: in vivo, male C57/BL6 mice
Method: 14 days after treatment, the fecal pellets of L-lysine (150 mM), Nε-Methyl-L-lysine (150 mM) (100 ul/mouse/Day) or vehicle (water; 100 ul/mouse/Day) treated mice were collected for DNA extraction. PCR amplification was performed on extracted DNA for 16s rDNA amplicons by using the primers targeting the V3-V4 region (primer set: 341F-805R). 16s rRNA amplicons were sequenced on an Illumina Miseq platform and generated 300 bp paired-end reads. Raw data were obtained with barcodes sequences cleaned up. The sequencing data was analyzed using the QIIME 2 platform (version: 2020.8).
(§3) It is orally administered Nε-Methyl-L-lysine (100 μg Nε-Methyl-L-lysine/g body weight/per day) into eight weeks old male C57/BL6 mice for fourteen days. Fourteen days after treatment, perigonadal adipose tissues of vehicle (H2O) treated mice and Nε-Methyl-L-lysine treated mice were collected for qPCR analyses. […] Data are presented as mean±SEM. Mann-Whitney t-tests are used to indicate significant differences between groups. *P<0.05.

Ucp1 and Cpt1b = test: qRT-PCR of browning marker gene Ucp1 and beta-oxidation gene Cpt1b in white adipose tissue of treated mice; type: in vivo, male C57BL/6J mice; conditions: perigonadal adipose tissue, 14 days after oral treatment, qPCR, vs vehicle
Method: as §2
as §3, with “Beiging and β-oxidation are two major fat-burning mechanism of white adipose tissues controlled by the expression of Ucp-1 and CPT-1 gene respectively. […] It” for “It”, “14” for “Fourteen”, “are” for “were”

[3] = test system: adipocytes of pWAT and iWAT; test: Histological examination of pWAT and iWAT (H&E, Adiposoft adipocyte area and size distribution); type: in vivo, male C57BL/6J mice; conditions: vs vehicle
Method: as §1

[4] = test system: differentiated 3T3-L1 adipocytes; test: Cell differentiation experiment: Oil Red-O lipid staining and Ucp1 qPCR; type: cell-based; conditions: 150 μM
Method: The differentiation of 3T3-L1 cells was performed by using 3T3-L1 DIFFERENTIATION KIT (DIF001, Merck). After differentiation, cells were maintained in a complete medium containing […] Nε-Methyl-L-lysine and vehicle control for 7 days before the harvest. After treatments, cells were subjected to RNA extraction and qPCR analysis of Ucp1 and Cpt1b mRNA expression. For quantifying the lipid accumulation in cells, cells were fixed with in 4% neutral-buffered formalin and stained with Oil Red-O reagent.
FIG. 5 illustrates a method of using Nε-Methyl-L-lysine to inhibit lipid storage and promote adipose browning in differentiated 3T3-L1 adipocytes in accordance with some embodiments. 3T3-L1 cells (SP-L1-F) are purchased from a commercial available source. It is maintained and differentiated 3T3-L1 preadipocytes. After differentiation, differentiated 3T3-L1 adipocytes are treated by post-differentiation medium containing vehicle (H2O) or Nε-Methyl-L-lysine (150 μM). […] Data are collected from three independent experiments (FIGS. 5a and 5b) and presented as mean±SEM. Mann-Whitney t-tests are used to indicate significant differences between groups. *P<0.05. **P<0.01. ****P<0.0001.

[5] = CDAHFD 4 weeks, oral treatment during third and fourth week
[6] = 100 μg/g body weight/per day oral, fourteen days, vs vehicle

Cl.O=C1/C(=C/c2ccccc2)C(NC2CCCCC2)c2ccccc21 (mixture of isomers) [(E/Z)-BCI hydrochloride] was tested, and the “abundance of Lachospiraceae bacterium, Marvinbryantia uncultured bacterium, Peptococcaceae uncultured bacterium, Bifidobacterium pseudolongum and Gordonnibacter uncultured bacterium” value (DUSP6 / cold microbiota) was “significantly regulates the abundance”.
In the case of NCCCC[C@H](N)C(=O)O [L-lysine], the “serum ALT level, CDAHFD compared with chow-diet fed mice” value [1, 5] is reported as “significantly increased”, the “serum AST level, CDAHFD compared with chow-diet fed mice” value [1, 5] is reported as “significantly increased” and the “total mass of iWAT (subcutaneous white adipose tissues)” value [2] is reported as “did not show significant effects”. The “total mass of pWAT (perigonadal white adipose tissues)” value [2] was “did not show significant effects”.
For CNCCCC[C@H](N)C(=O)O [Nε-Methyl-L-lysine], the “serum ALT level, CDAHFD compared with chow-diet fed mice” value [1, 5] was “significantly increased”, the “reducing AST/ALT ratio, compared with lysine” value ([1]; mice fed with a CDAHFD) was “better effect than lysine” and the “reducing serum AST level, compared with lysine” value ([1]; mice fed with a CDAHFD) was “better effect than lysine”. For the same compound, the liver lipid droplets ([1]; mice fed with a CDAHFD, oral 14 days) was “promising effect on reducing”, the liver fibrosis ([1]; mice fed with a CDAHFD, oral 14 days, trichrome stain) was “promising effect on reducing” and the “number of bacteria classified in the Actinobacteria phylum in gut” value (gut microbiota; [6]) was “capable of increasing the number”. For the same compound, the “number of bacteria classified in the Bacilli class in gut” value (gut microbiota; [6]) was “capable of increasing the number”, the “number of bacteria classified in the Bacteroidia phylum in gut” value (gut microbiota; [6]) was “capable of increasing the number” and the “number of bacteria classified in the Bifidobacterium genus in gut” value (gut microbiota; [6]) was “capable of increasing the number”. For the same compound, the “number of bacteria classified in the Coriobacteriia class in gut” value (gut microbiota; [6]) was “capable of increasing the number”, the “number of bacteria classified in the Lactobacillus genus in gut” value (gut microbiota; [6]) was “capable of increasing the number” and the “number of bacteria classified in the Saccharimonadia class in gut” value (gut microbiota; [6]) was “capable of increasing the number”. For the same compound, the “number of bacteria classified in the Verrucomicrobiota phylum in gut” value (gut microbiota; [6]) was “capable of increasing the number”, the total bacterial load (gut microbiota; [6]) was “capable of increasing the total bacterial load” and the “number or relative percentage of Akkernmansia muciniphilla in gut” value (gut microbiota; FIG. 8j) was “increase the number or relative percentage”. For the same compound, the “sensitivity of visceral pWAT versus subcutaneous iWAT to the substance” value [2] was “higher sensitivity”, the “total mass of iWAT (subcutaneous white adipose tissues)” value [2] was “dramatically reduced” and the “total mass of pWAT (perigonadal white adipose tissues)” value [2] was “dramatically reduced”. The body weight ([2]; 150 mM 100 ul/mouse/Day (100 μg/g body weight/per day), vs vehicle or L-lysine) was “did not significantly change the body weight; also recorded: did not change the mice body weights”, the “expression of Cpt1b (β-oxidation marker gene) in pWAT” value (Ucp1 and Cpt1b) was “significantly induced the expression” and the “expression of Ucp-1 (browning marker gene) in pWAT” value (Ucp1 and Cpt1b) was “significantly induced the expression”. For the same compound, the “expression of Cpt1b (β-oxidation marker gene) in pWAT” value (Ucp1 and Cpt1b; listed as Nε-Methyl−1-lysine) was “enhanced the expression”, the “expression of Ucp-1 (browning marker gene) in pWAT” value (Ucp1 and Cpt1b; listed as Nε-Methyl−1-lysine) was “enhanced the expression” and the “mean adipocyte area and distribution of adipocyte size of pWAT and iWAT” value ([3]; Adiposoft software) was “significantly reduced”. For the same compound, the “adipocyte size in iWAT (histological examination)” value ([3]; H&E sections) was “significantly reduced adipocyte size”, the “adipocyte size in pWAT (histological examination)” value ([3]; H&E sections) was “significantly reduced adipocyte size” and the “lipid storage (oil-red O staining)” value ([4]; vs vehicle (H2O)) was “significantly reduce lipid storage”. For the same compound, the “browning marker Ucp-1 expression” value ([4]; vs vehicle-treated cells) was “significantly induce”.

— US12156859B2, “Methods of and compositions for treating obesity, obesity-related diseases or cancers using a N6-methyllysine/l-lysine mixture” (Tainnovation Inc, priority 2021, dated 2024)
